3 compounds from publication PMC11938014, “Development and Application of Small Molecule–Peptide Conjugates as Cathepsin K-Specific Covalent Irreversible Inhibitors in Human Osteoclast and Lung Cancer” (JACS Au, 2025) can be followed below.

One test deals with T1, CTSK (Homo sapiens, UniProt P43235).
T1 construct: made in house
T1 sequence (P43235 115-329): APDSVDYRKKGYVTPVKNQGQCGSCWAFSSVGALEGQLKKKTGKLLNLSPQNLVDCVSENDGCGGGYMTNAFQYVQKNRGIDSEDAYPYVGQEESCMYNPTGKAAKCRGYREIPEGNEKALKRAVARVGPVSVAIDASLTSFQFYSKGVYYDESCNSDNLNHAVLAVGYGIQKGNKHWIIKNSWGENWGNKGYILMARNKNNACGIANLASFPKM
Nature of the test: Kinetic evaluation of recombinant cathepsin inhibition, fluorogenic substrate Z-FR-AMC. The class given is biochemical. As to conditions: for Ki: irreversible inhibitors. How it is done: (§1) Cathepsin (0.4 nM, CatK) or 5 nM (CatS, CatB, and CatL) were each mixed with inhibitors before adding the fluorogenic substrate. The proteases were then reacted with their substrates, Z-RR-AMC (CatL) or Z-FR-AMC (CatS, CatB, and CatK), for 30 min at 37 °C in the phosphate buffer (100 mM Na2HPO4/NaH2PO4, 50 mM NaCl, 5 mM DTT, 0.1% PEG-6000, at pH 6). Reactions were done in 96-well black flat-bottom microplates (Greiner, Germany); fluorescence (Ex/Em 370 and 460 nm) was measured by a Tecan INFINITE M1000 pro plate reader (Tecan, Switzerland) in the presence of inhibitors or vehicle. For irreversible inhibitors, reaction data were analyzed by using the one-phase association formula in GraphPad Prism 9 software: Y = Y0 + (plateau – Y0) × (1 – exp(−K × X)), where Y0 and Y denote the fluorescence signals at times 0 and t, respectively, K represents the observed reaction rate kobs, and X signifies the […]. The inactivation rates at each inhibitor concentration were determined by subtracting the inactivation observed in the control sample: kobs – kctrl. The maximum inactivation rate (kinact) was derived as the asymptote from the equation Y = kinact × X/(Ki^app + X), where X represents the inhibitor concentration, Y is the observed inactivation rate for each X, and Ki^app is the apparent inhibition constant. Ki values were derived from IC50 or Ki^app using the equations Ki = Ki^app/(1 + […]) and IC50 = E0/2 + Ki^app, where Km represents the Michaelis–Menten constant, S denotes substrate concentration, and E0 indicates cathepsin concentration. The maximum inhibitor dose in the experiment was 50 μM. Measurements were conducted in multiple independent duplicates. Average values are listed.

The next test deals with T2, CTSS (Homo sapiens, UniProt P25774).
T2 construct: made in house
The test is described as above. The format is biochemical. How it is done:
as §1

For the next test, the system named is human osteoclasts. The test can be described thus: TRAP staining, osteoclast number on bone slices. The class given is cell-based. Particulars: inhibitor 1 or 5 μM. How it is done:
Figure 6 CTSK inhibition in human osteoclasts. (a) Scheme of the process of maturation of osteoclasts (OCs) derived from human monocytes in the presence of RANKL and M-CSF. (b) Representative pictures of bone resorption after incubation with human OCs treated with vehicle or inhibitors for 10–14 days. Bone resorption was observed by a toluidine blue stain. Increased staining indicates a higher number of resorption pits and greater bone resorption. (c) Quantitative analysis of pit formation in bone slices after incubation with OC treated with GD20 or ODN (1, 5 μM) relative to vehicle treated slices. […] (e) Quantification of osteoclasts number on bone slices after inhibitor treatment, detected by TRAP staining. […] The activity of CTSK in the cells was detected by 2 h labeling with a pan-cathepsin activity-based probe, GB123, followed by a fluorescence scan of the SDS-PAGE detecting CTSK attached to the probe; the red arrow points to the bands of CTSK (above 25 kDa). […]
Blood was taken in an aseptic nontouch technique from consented human volunteers that were bled from the median cubital vein using a 21G needle, by the Declaration of Helsinki. […] The whole bone slice was analyzed by generating a panoramic view of the slice using stitching of images taken with an 20× magnification. […] And again, bone slice slices were imaged as was described before and counted using ImageJ software. […]

T2 sequence (P25774 115-331): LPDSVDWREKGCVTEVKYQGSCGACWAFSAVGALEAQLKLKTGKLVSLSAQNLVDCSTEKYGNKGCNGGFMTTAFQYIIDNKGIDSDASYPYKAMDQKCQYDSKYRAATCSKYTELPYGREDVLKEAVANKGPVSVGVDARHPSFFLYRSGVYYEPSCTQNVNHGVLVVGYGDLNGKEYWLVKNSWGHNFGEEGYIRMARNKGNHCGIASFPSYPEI

Turning to `CC(C)C[C@H](N[C@@H](c1ccc(-c2ccc(S(C)(=O)=O)cc2)cc1)C(F)(F)F)C(=O)NCC(=O)COC(=O)[C@@H]1CCCN1C(=O)[C@H](CC(C)C)NC(=O)OCC1c2ccccc2-c2ccccc21` [GD20], on CTSK, the kinact (usually the maximal first-order rate at which the target is inactivated) was 0.0026 s⁻¹; the second-order inactivation constant (kinact/KI) (commonly the maximal inactivation rate divided by the concentration that gives half of it) was determined as 232000 M⁻¹ s⁻¹; the “type of inhibition, CTSK” value was “irreversible”; the Ki was 13 nM. On CTSS (maximum inhibitor dose 50 μM), the Ki is > 50 µM. The “osteoclast numbers on bone slices (TRAP)” value in the test with human osteoclasts is recorded as “no significant alterations”.
For the compound `CC(C)C[C@H](N[C@@H](c1ccc(-c2ccc(S(C)(=O)=O)cc2)cc1)C(F)(F)F)C(=O)NCC(=O)COC(=O)[C@@H]1CCCN1C(=O)[C@H](CCC(N)=O)NC(=O)OCC1c2ccccc2-c2ccccc21` [GD38], on CTSK, the kinact stood at 0.0032 s⁻¹; the kinact/KI turned out to be 230000 M⁻¹ s⁻¹; the “type of inhibition, CTSK” value is reported as “irreversible”; the Ki stood at 20.9 nM. On CTSS, the maximal inactivation rate constant (kinact) was 0.009 s⁻¹; the kinact/KI was found to be 178 M⁻¹ s⁻¹; the “type of inhibition, CTSS” value is on record as “irreversible”. Besides, the Ki on CTSS (irreversible inhibitor) was 62 µM.
With `CC(C)(F)C[C@H](N[C@@H](c1ccc(-c2ccc(S(C)(=O)=O)cc2)cc1)C(F)(F)F)C(=O)NC1(C#N)CC1` [ODN, odanacatib, reference compound], on CTSK, the “type of inhibition, CTSK” value is reported as “reversible (tight binding)”. In addition, at CTSK (reversible (tight binding)), the IC50 (commonly the concentration that inhibits the measured activity by half) came out at 0.942 nM. Moreover, the “type of inhibition, CTSS” value on CTSS is given as “reversible”. Further, at CTSS (reversible), the Ki was determined as 0.136 µM. Besides, the “osteoclast numbers on bone slices (TRAP)” value in the test on human osteoclasts is listed as “increase”.
